Here are results for 11 compounds from ChEMBL document CHEMBL1201862, “PubChem BioAssay data set” (2004).

Common to all, as to test: NCI tumour cell line growth inhibition, 48 h
Assay [1] concerns HOP-62.
The test system of assay [2] is SK-MEL-5.
Assay [3] deals with SF-295.
Assay [4] has as its system PC-3.
In assay [5] the test system is BT-549.
The test system of assay [6] is K562.
Assay [7] has as its system OVCAR-8.
For assay [8], the system named is CCRF-CEM.
The subject of assay [9] is MDA-N.
Assay [10] deals with COLO 205.
In assay [11] the test system is RXF 393.
Assay [12] relates to SK-MEL-2.
Assay [13] has as its system SNB-75.
Assay [14] has as its system UO-31.
Assay [15] has as its system SW-620.
Assay [16] has as its system M14.
For assay [17], the system named is 786-0.
The test system of assay [18] is MOLT-4.
For assay [19], the system named is DU-145.

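Tested at 5 concentrations; 48 h exposure; 96-well plates; endpoints linearly interpolated, else capped at highest concentration. Abbreviation: GI50, concentration required for 50% inhibition of growth.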 Activity calls are given as the source filed them. Cut-off read from the data, not from the text of the source: active = GI50 up to about 1.1 µM and inactive = higher.

For the compound `COC(=O)c1n[nH]c(C)c1/N=N/N(C)CCC#N`, the GI50 in [1] was 18.8 µM (inactive); in assay [2], 26.9 µM (inactive); in assay [3] it was 24.9 µM (inactive); in assay [4], 20 µM (inactive); in assay [5] it was 10.9 µM (inactive); in assay [6], 15.3 µM (inactive). In addition, the GI50 is 14.4 µM (inactive) in assay [7]; 7.67 µM (inactive) in [8]; 47.5 µM (inactive) in assay [9]; 13.4 µM (inactive) in assay [10]; 13.3 µM (inactive) in assay [11]; 23.6 µM (inactive) in assay [12]. Besides, the GI50 is 13.4 µM (inactive) in assay [13]; 0.301 µM (active) in assay [14]; 14 µM (inactive) in assay [15]; 30.8 µM (inactive) in assay [16]; 17.7 µM (inactive) in assay [17]; 3.33 µM (inactive) in assay [18]. In addition, the GI50 in assay [19] was 15.1 µM (inactive).

With `OCCCCCNc1c2ccccc2nc2ccccc12`, the GI50 in [1] is 1.38 µM (inactive); in assay [2] it was 1.71 µM (inactive); in [3], 2.75 µM (inactive); in [4], 1.98 µM (inactive); in [5], 6.17 µM (inactive); in assay [6], 2.37 µM (inactive). In addition, the GI50 in assay [7] was 2.34 µM (inactive); in [8] it was 2.5 µM (inactive); in assay [9], 2.54 µM (inactive); in assay [10] it was 1.53 µM (inactive); in [11], 2.86 µM (inactive); in [12], 2.62 µM (inactive). Besides, the GI50 in [13] is 5.52 µM (inactive); in assay [14], 2.38 µM (inactive); in assay [15], 2.55 µM (inactive); in assay [16], 2.74 µM (inactive); in assay [17], 2.34 µM (inactive); in assay [18], 2.4 µM (inactive). In assay [19], the GI50 was 3.02 µM (inactive).

Take `O=[N+]([O-])C(Cl)=C/C(=C(\Cl)SCc1ccccc1)[N+](=O)[O-]`: the GI50 is 18.9 µM (inactive) in assay [1]; 20.8 µM (inactive) in assay [2]; 28.6 µM (inactive) in assay [3]; 22.1 µM (inactive) in [4]; 14.7 µM (inactive) in [5]; 13.3 µM (inactive) in [6]. The GI50 in assay [7] was 23.5 µM (inactive); in assay [8] it was 3.24 µM (inactive); in assay [9] it was 23.4 µM (inactive); in assay [10], 17.8 µM (inactive); in assay [11], 10.6 µM (inactive); in assay [12], 21.5 µM (inactive). The GI50 in assay [13] was 49.5 µM (inactive); in [14], 20.5 µM (inactive); in assay [15], 21.2 µM (inactive); in assay [16], 20 µM (inactive); in [17], 30.5 µM (inactive); in assay [18], 17.7 µM (inactive). Also, the GI50 in [19] was 31.4 µM (inactive).

Regarding `Nc1ccc(Oc2ccc(C3(c4ccc(Oc5ccc(N)cc5)cc4)C4CC5C6CC7CC5C3C(C7)C6C4)cc2)cc1`, the GI50 in assay [1] is 72.9 µM (inactive); in assay [2], 52.6 µM (inactive); in [3], 54.8 µM (inactive); in [4], > 45.4 µM (inactive); in [5] it was > 100 µM (inactive); in assay [6], 16 µM (inactive). Further, the GI50 in assay [7] is 4.97 µM (inactive); in assay [8], 2.62 µM (inactive); in [9] it was 14.5 µM (inactive); in [10], 42.4 µM (inactive); in [11] it was 5.4 µM (inactive); in [12], > 100 µM (inactive). The GI50 in assay [13] was > 100 µM (inactive); in assay [14], 5.24 µM (inactive); in [15], 97.3 µM (inactive); in assay [16], 3.87 µM (inactive); in assay [17] it was 9.66 µM (inactive); in assay [18], 6.08 µM (inactive). Besides, the GI50 in assay [19] was 9.04 µM (inactive).

`CCC1C2Cc3ccc(O)cc3C1(CC)CCN2C` (stereo not drawn): the GI50 in assay [1], in assay [2], in assay [3], in [4], in assay [5] and in [6] was > 100 µM (inactive) in each case. In addition, the GI50 in assay [7], in assay [8], in [9], in [10], in assay [11] and in [12] was > 100 µM (inactive) in each case. For the same compound, the GI50 in assay [13], in [14], in [15], in [16], in assay [17] and in assay [18] was > 100 µM (inactive) throughout. The GI50 in assay [19] was > 100 µM (inactive).

Regarding `CCOC(=O)CCC(C(=O)OCC)n1nnc2ccc(Nc3c(C)[n+]([O-])c4cc(F)c(OCC)cc4[n+]3[O-])cc21` (stereo not drawn), the GI50 in [1] was > 100 µM (inactive); in assay [2], 50.8 µM (inactive); in assay [3], 77.4 µM (inactive); in assay [4], > 100 µM (inactive); in assay [5], 96.2 µM (inactive); in assay [6], 41.4 µM (inactive). For the same compound, the GI50 is 94.4 µM (inactive) in [7]; 40 µM (inactive) in assay [8]; 46.3 µM (inactive) in [9]; 28.2 µM (inactive) in [10]; 41.8 µM (inactive) in assay [11]; 32.3 µM (inactive) in assay [12]. Also, the GI50 is 79.4 µM (inactive) in assay [13]; 54 µM (inactive) in [14]; > 100 µM (inactive) in assay [15]; 62.4 µM (inactive) in [16]; > 100 µM (inactive) in [17]; 44.7 µM (inactive) in [18]. For the same compound, the GI50 in assay [19] is 58.9 µM (inactive).

`O=S1(=O)N=C(SCc2ccccc2)N(c2ccccc2)c2ccncc21`: the GI50 in [1] is 31.3 µM (inactive); in [2], 28.4 µM (inactive); in assay [3], 34 µM (inactive); in [4], 25.7 µM (inactive); in [5], 25.5 µM (inactive); in assay [6], 29.9 µM (inactive). Moreover, the GI50 in assay [7] was 47.3 µM (inactive); in assay [8], 28.5 µM (inactive); in assay [9], 27.4 µM (inactive); in assay [10], 19.7 µM (inactive); in assay [11], 26.6 µM (inactive); in assay [12] it was 34.3 µM (inactive). For the same compound, the GI50 in [13] is 24.7 µM (inactive); in [14], 3.83 µM (inactive); in [15], 56 µM (inactive); in [16], 36.3 µM (inactive); in assay [17] it was 40.8 µM (inactive); in assay [18] it was 17.7 µM (inactive). Further, in [19], the GI50 is 30.5 µM (inactive).

As for `c1ccc2c3ccn4ccc5c6ccccc6[nH]c5c4c-3nc2c1`, the GI50 in assay [1] is 1.31 µM (inactive); in assay [2], 1.46 µM (inactive); in [3], 1.46 µM (inactive); in assay [4] it was 1.39 µM (inactive); in assay [5], 1.77 µM (inactive); in assay [6], 0.201 µM (active). In addition, the GI50 in assay [7] was 0.246 µM (active); in assay [8], 0.31 µM (active); in [9], 1.34 µM (inactive); in assay [10], 0.583 µM (active); in assay [11], 1.32 µM (inactive); in assay [12] it was 1.72 µM (inactive). Besides, the GI50 in [13] is 1.57 µM (inactive); in assay [14], 1.39 µM (inactive); in assay [15] it was 0.169 µM (active); in assay [16], 1.85 µM (inactive); in [17], 0.163 µM (active); in assay [18] it was 1.42 µM (inactive). Besides, the GI50 in [19] was 1.43 µM (inactive).

As for `COc1cc2cc(C(=O)Nc3cc4n(n3)-c3ccccc3C4)[nH]c2c(OC)c1OC`, the GI50 in assay [1] is 2 µM (inactive); in [2] it was 1.41 µM (inactive); in assay [3] it was 3.4 µM (inactive); in assay [4], 2.71 µM (inactive); in assay [5] it was 1.19 µM (inactive); in [6], 3.36 µM (inactive). For the same compound, the GI50 in assay [7] is 1.26 µM (inactive); in assay [8] it was 1.38 µM (inactive); in assay [9] it was 2.35 µM (inactive); in assay [10], 3.06 µM (inactive); in assay [11] it was 30.1 µM (inactive); in assay [12] it was 2.3 µM (inactive). Also, the GI50 is 5.83 µM (inactive) in assay [13]; 1.97 µM (inactive) in [14]; 7.08 µM (inactive) in [15]; 2 µM (inactive) in assay [16]; 8.39 µM (inactive) in assay [17]; 1.03 µM (active) in [18]. For the same compound, the GI50 in [19] was 6.73 µM (inactive).

Regarding `C/C(=N\Nc1ncnc2ccccc12)c1ccccn1`, the GI50 in [1] was 0.0355 µM (active); in assay [2], 0.0237 µM (active); in assay [3], 0.0803 µM (active); in [4] it was < 0.0226 µM (active); in assay [5] it was 0.587 µM (active); in assay [6] it was < 0.0106 µM (active). The GI50 in assay [7] is < 0.01 µM (active); in [8] it was < 0.01 µM (active); in [9], 0.384 µM (active); in assay [10], < 0.01 µM (active); in [11] it was 0.0371 µM (active); in [12], 2.79 µM (inactive). In addition, the GI50 in assay [13] is 1.81 µM (inactive); in [14], 0.0516 µM (active); in assay [15], < 0.0267 µM (active); in assay [16] it was 0.02 µM (active); in [17], < 0.0236 µM (active); in assay [18], < 0.0136 µM (active). The GI50 in assay [19] is 0.0718 µM (active).

As for `CC(C)c1cc2c(c(O)c1O)[C@@]1(C(=O)O)CCCC(C)(C)[C@@H]1CC2` [CARNOSIC ACID], the GI50 in [1] is 27.2 µM (inactive); in assay [2] it was 16.2 µM (inactive); in [3] it was 22.4 µM (inactive); in assay [4], 15.3 µM (inactive); in assay [5] it was 10.5 µM (inactive); in assay [6] it was 28.4 µM (inactive). The GI50 in assay [7] was 15.3 µM (inactive); in assay [8], 3.18 µM (inactive); in assay [9], 32.4 µM (inactive); in assay [10], 24.2 µM (inactive); in assay [11], 19.6 µM (inactive); in assay [12] it was 18.9 µM (inactive). Moreover, the GI50 in [13] was 17.8 µM (inactive); in assay [14] it was 14.4 µM (inactive); in assay [15], 31.8 µM (inactive); in [17] it was 31 µM (inactive); in assay [18], 11.8 µM (inactive); in [19], 25.1 µM (inactive).
